Source: US6476263B1, “Compounds for inhibiting β-amyloid peptide release and/or its synthesis” (Elan Pharmaceuticals, Inc., priority 1996, dated 2002)
Residues, ends and D or L forms follow the SMILES beside them. *: point of attachment. PhAc = O=C(Cc1ccccc1)*; Boc = CC(C)(C)OC(=O)*

Compound `C[C@H](NC(=O)Cc1cc(F)cc(F)c1)C(=O)NCC(=O)OCCc1ccccc1` [Example 45, N-[N-(3,5-Difluorophenylacetyl)-L-alaninyl]glycine 2-Phenylethyl Ester] has a melting point of 154 to 155.2 °C. `C[C@H](NC(=O)CC1CC1)C(=O)N[C@H](C(=O)OC(C)(C)C)c1ccccc1` [Example 189, N-[N-(Cyclopropylacetyl)-L-alaninyl]-L-phenylglycine tert-Butyl Ester] showed a melting point of 105 to 107 °C. `COC(=O)[C@@H](NC(=O)[C@H](C)NC(=O)Cc1ccccc1)C(C)C` [Example 207, N-[N-(Phenylacetyl)-L-alaninyl]-L-valine Methyl Ester] (HELM PEPTIDE1{[O=C(Cc1ccccc1)[*:2]].A.V.[CO[*:1]]}$$$$V2.0) gave a melting point of 112 to 115 °C. With `CC(C)[C@H](NC(=O)Cc1cc(F)cc(F)c1)C(=O)N[C@H](C(=O)OC(C)(C)C)c1ccccc1` [Example 192, N-[N-(3,5-Difluorophenylacetyl)-L-valinyl]-L-phenylglycine tert-Butyl Ester] the melting point was 170.5 to 171.8 °C. Work on `COC(=O)[C@H](CC(C)C)NC(=O)[C@H](C)NC(=O)Cc1ccccc1` [Example 201, N-[N-(Phenylacetyl)-L-alaninyl]-L-leucine Methyl Ester] (HELM PEPTIDE1{[O=C(Cc1ccccc1)[*:2]].A.L.[CO[*:1]]}$$$$V2.0) yielded a melting point of 102.5 to 105 °C. `COC(=O)[C@H](Cc1ccccc1)NC(=O)[C@H](C)NC(=O)CC1=CCCCC1` [Example 69, N-[N-(Cyclohex-1-enylacetyl)-L-alaninyl]-L-phenylalanine Methyl Ester] gave a melting point of 139 to 142 °C. For `COC(=O)[C@H](CCCCN(C)C)NC(=O)[C@H](C)NC(=O)Cc1cc(F)cc(F)c1` [Example 18, Methyl N-[N-(3,5-Difluorophenylacetyl)-L-alaninyl]-(S)-2-amino-6-(N,N-dimethylamino)hexanoate], the melting point was 123 to 126 °C. For `CCOC(=O)C(NC(=O)[C@H](C)NC(=O)Cc1cc(F)cc(F)c1)c1ccncc1` (stereo partly drawn) [Example 66, Ethyl N-[N-(3,5-Difluorophenylacetyl)-L-alaninyl]-2-amino-2-(4-pyridyl)acetate], the melting point was 175 to 181 °C. Compound `CCOC(=O)[C@H](C)NC(=O)[C@H](C)NC(=O)Cc1cccc([N+](=O)[O-])c1` [Example 76, N-[N-(3-Nitrophenylacetyl)-L-alaninyl]-L-alanine Ethyl Ester] has a melting point of 193 to 195 °C. Work on `C[C@H](NC(=O)Cc1cc(F)cc(F)c1)C(=O)N[C@@H](Cc1ccccc1)C(=O)OCc1ccccc1` [Example 37, N-[N-(3,5-Difluorophenylacetyl)-L-alaninyl]-L-phenylalanine Benzyl Ester] yielded a melting point of 170 to 171 °C. Compound `COC(=O)[C@@H](NC(=O)[C@@H](NC(=O)Cc1cc(F)cc(F)c1)C(C)(C)C)c1ccccc1` [Example 254, N-[N-(3,5-Difluorophenylacetyl)-L-tert-leucinyl]-L-phenylglycine Methyl Ester] has a melting point of 176.4 °C. With `COC(=O)[C@@H](NC(=O)CNC(=O)Cc1cc(F)cc(F)c1)c1ccccc1` [Example 198, N-[N-(3,5-Difluorophenylacetyl)glycinyl]-L-phenylglycine Methyl Ester] the melting point was 142.3 °C. With `CC(C)C(NC(=O)Cc1cc(F)cc(F)c1)C(=O)NC(=O)C(N)c1ccccc1` (mixture of isomers) [Example 249, N-[N-(3,5-Difluorophenylacetyl)-D,L-valinyl]-D,L-phenylglycinamide] the melting point was 260.3 to 264.3 °C. Work on `CCCC[C@H](NC(=O)[C@H](C)NC(=O)Cc1cc(F)cc(F)c1)C(=O)OC` [Example 1, Methyl N-[N-(3,5-Difluorophenylacetyl)-L-alaninyl]-(S)-2-aminohexanoate] yielded a melting point of 142 to 143 °C. With `CC[C@H](NC(=O)[C@H](C)NC(=O)Cc1ccccc1)C(=O)OC` [Example 208, Methyl N-[N-(Phenylacetyl)-L-alaninyl]-2-(S)-aminobutanoate] (HELM PEPTIDE1{[O=C(Cc1ccccc1)[*:2]].A.[Abu].[CO[*:1]]}$$$$V2.0) the melting point was 120 °C. Work on `CC(C)COC(=O)[C@H](C)NC(=O)[C@H](Cc1ccccc1)NC(=O)CC(C)C` [Example 84, N-[N-(Isovaleryl)-L-phenylalaninyl]-L-alanine iso-butyl Ester] yielded a melting point of 135 to 138 °C. Work on `COC(=O)[C@H](Cc1ccc(O)cc1)NC(=O)[C@H](C)NC(=O)Cc1cc(F)cc(F)c1` [Example 15, N-[N-(3,5-Difluorophenylacetyl)-L-alaninyl]-L-tyrosine Methyl Ester] yielded a melting point of 85 to 88 °C. In the case of `COC(=O)[C@H](Cc1ccc(OCC(=O)OC(C)(C)C)cc1)NC(=O)[C@H](C)NC(=O)Cc1cc(F)cc(F)c1` [Example 14, N-[N-(3,5-Difluorophenylacetyl)-L-alaninyl]-L-4-[(tert-butyloxycarbonyl)methoxy]phenylalanine Methyl Ester], the melting point is reported as 116 to 119 °C. Compound `COC(=O)CNC(=O)[C@H](C)NC(=O)Cc1cc(F)cc(F)c1` [Example 28, N-[N-(3,5-Difluorophenylacetyl)-L-alaninyl]glycine Methyl Ester] has a melting point of 158 to 160 °C. With `COC(=O)[C@H](CCCCNC(=O)OC(C)(C)C)NC(=O)[C@H](C)NC(=O)Cc1ccccc1` [Example 205, N-[N-(Phenylacetyl)-L-alaninyl]-Nε-(tert-butoxycarbonyl)-L-lysine Methyl Ester] (PhAc-Ala-Lys(Boc)-OMe) the melting point was 119 to 121 °C. With `NC(C(=O)NC(=O)C(NC(=O)Cc1cc(F)cc(F)c1)c1ccccc1)c1ccccc1` (mixture of isomers) [Example 248, N-[N-(3,5-Difluorophenylacetyl)-D,L-phenylglycinyl]-D,L-phenylglycinamide] the melting point was 285.5 to 288.5 °C. Compound `COC(=O)[C@@H](NC(=O)[C@H](C)NC(=O)Cc1cc(F)cc(F)c1)c1ccccc1` [Example 111, N-[N-(3,5-Difluorophenylacetyl)-L-alaninyl]-L-phenylglycine Methyl Ester] has a melting point of 198 to 200 °C. `C[C@H](NC(=O)CC1CCCC1)C(=O)N[C@H](C(=O)OC(C)(C)C)c1ccccc1` [Example 328, N-[N-(Cyclopentaneacetyl)-L-alaninyl]-L-phenylglycine tert-Butyl Ester] gave a melting point of 133 to 138 °C. For `COCC(NC(=O)[C@H](C)NC(=O)Cc1cc(F)cc(F)c1)C(=O)OC` (stereo partly drawn) [Example 24, Methyl N-[N-(3,5-Difluorophenylacetyl)-L-alaninyl]-2-amino-3-methoxypropionate], the melting point was 165 to 168 °C. In the case of `CCC[C@H](NC(=O)Cc1cc(F)cc(F)c1)C(=O)N[C@H](C(=O)OC)c1ccccc1` [Example 253, N-[N-(3,5-Difluorophenylacetyl)-L-norvalinyl]-L-phenylglycine Methyl Ester], the melting point is reported as 204 to 205 °C. In the case of `COC(=O)[C@H](C)NC(=O)[C@H](C)NC(=O)Cc1ccccc1` [Example 200, N-[N-(Phenylacetyl)-L-alaninyl]-L-alanine Methyl Ester] (HELM PEPTIDE1{[O=C(Cc1ccccc1)[*:2]].A.A.[CO[*:1]]}$$$$V2.0), the melting point is reported as 140.5 to 142 °C. With `CCOC(=O)[C@H](CO)NC(=O)[C@H](C)NC(=O)Cc1cccc([N+](=O)[O-])c1` [Example 117, N-[N-(3-Nitrophenylacetyl)-L-alaninyl]-L-serine Ethyl Ester] the melting point was 179 to 181 °C.
